Source: the SangsterLogP compilation

Cc1ccnc(N)c1
logP: 0.56

CC(=O)c1ccc(Cl)cc1
logP: 2.32

CCC1(c2ccccc2)C(=O)NC(=O)NC1=O
logP: 1.47

NS(=O)(=O)c1cccc([N+](=O)[O-])c1
logP: 0.55

NC(=O)N(CCCl)N=O
logP: 0.57

Cc1ccc2cccc(O)c2n1
logP: 2.33

C=CCNCCC
logP: 1.33

CC(C)C[C@H](N)C(=O)O
logP: -1.52

COC(=O)C(C#N)=NNc1ccc(Cl)cc1C(F)(F)F
logP: 4.66

NS(=O)(=O)c1ccc(Br)cc1
logP: 1.36

CC(=O)c1ccccn1
logP: 0.85

O=Nc1ccc2ccccc2c1O
logP: 2.46

CC(=O)OC1C(Cl)C(Cl)C(Cl)C(Cl)C1Cl (stereo unspecified)
logP: 3.4

CCCCOC(=O)c1ccc(O)cc1
logP: 3.57

O=C(O)CCCCCCCC(=O)O
logP: 1.57

Cc1cccc(OCCN(C)C)c1
logP: 2.05

COc1cccc(O)c1
logP: 1.34

CCOc1ccccc1O
logP: 1.68

Brc1ccncc1
logP: 1.54

CCc1ccccc1OCC(=O)O
logP: 2.53

O=[N+]([O-])c1cc[n+]([O-])c2c([N+](=O)[O-])cccc12
logP: 0.76

CC(=O)Nc1ccccn1
logP: 0.61

CCCCCC=O
logP: 1.78

CC(=O)c1ccc(Br)cc1
logP: 2.43

O=[N+]([O-])c1cncn1CCN1CCOCC1
logP: 0.07

CNC(=O)Oc1ccccc1I
logP: 1.94

c1ccc2cc3ccccc3cc2c1
logP: 4.45

Nc1ccc(S(=O)(=O)Nc2nccs2)cc1
logP: 0.05

C=C
logP: 1.13

c1ccc2[nH]cnc2c1
logP: 1.32

CCc1cccc2ccccc12
logP: 4.4

c1ncncn1
logP: -0.73

CCC(C)c1ccccc1OC(=O)NC (stereo unspecified)
logP: 2.78

Nc1ccccc1-c1ccccc1
logP: 2.84

NS(=O)(=O)c1ccc(Cl)cc1
logP: 1.15

O=c1[nH]c2nc(O)nc(O)c2[nH]1
logP: -2.17

CC(C)NCC(O)COc1cccc2[nH]ccc12 (stereo unspecified)
logP: 1.75

NS(=O)(=O)c1cccc(Cl)c1
logP: 1.29

COC(=O)C(C#N)=NNc1cccc(Cl)c1
logP: 3.6

CNC(=O)Oc1ccc2c(c1)[C@]1(C)CCN(C)[C@@H]1N2C
logP: 1.58

S=C1NCCN1
logP: -0.66

CCOCCO
logP: -0.32

CCOC(=O)c1ccc(N)cc1
logP: 1.86

Nc1ccc(Cl)cc1
logP: 1.83

CNc1ccc([N+](=O)[O-])cc1
logP: 2.04

C=CCC1(CCCC)C(=O)NC(=O)NC1=O
logP: 2.31

Nc1nc(N)c2nc(-c3ccccc3)c(N)nc2n1
logP: 0.98

C#C
logP: 0.37

CCOC(=O)c1cccnc1
logP: 1.32

Nc1ccccc1[N+](=O)[O-]
logP: 1.85

CCOC(=O)C(C#N)=NNc1ccc(Cl)c(Cl)c1
logP: 4.66

NCCc1ccc(O)c(O)c1
logP: -0.98

CC(=O)c1ccccc1O
logP: 1.92

CCCCCCCCCC
logP: 5.01

O=C(O)c1cccc(Br)c1
logP: 2.87

NC(=O)C1(N2CCCCC2)CCN(CCCC(=O)c2ccc(F)cc2)CC1
logP: 2.02

CI
logP: 1.51

CN(C)N=O
logP: -0.57

CC(=O)C(C#N)=NNc1cc(C(F)(F)F)ccc1Cl
logP: 5.08

Cc1c(Cl)cccc1Nc1ccccc1C(=O)O
logP: 5.17

c1ccc2c(c1)ccc1ccccc12
logP: 4.46

CNC(=O)Oc1cccc([N+](=O)[O-])c1
logP: 1.39

Cc1ccc(OCC(=O)O)cc1
logP: 1.86

NC(=O)c1ccc(Cl)cc1
logP: 1.55

ClC(Cl)(Cl)Cl
logP: 2.83

Fc1ccc(F)cc1
logP: 2.13

Nc1nc2c(ncn2[C@H]2C[C@H](O)[C@@H](CO)O2)c(=O)[nH]1
logP: -1.3

c1ncc2[nH]cnc2n1
logP: -0.37

[N-]=[N+]=N[C@H]1C[C@H](n2ccc(=O)[nH]c2=O)O[C@@H]1CO
logP: -0.32

BrCBr
logP: 1.7

CNC(=O)Oc1cccc(OC)c1
logP: 1.3

CCCCCCC(C)=O
logP: 2.37

C#C[C@]1(O)CC[C@H]2[C@@H]3CCc4cc(O)ccc4[C@H]3CC[C@@]21C
logP: 3.67

NS(=O)(=O)c1ccc([N+](=O)[O-])cc1
logP: 0.64

Clc1cccc(Cl)c1
logP: 3.53

CC(=O)Nc1ccc(Cl)cc1
logP: 2.09

Cc1ccc2cc(C)ccc2c1
logP: 4.31

Cn1cnc2c1c(=O)[nH]c(=O)n2C
logP: -0.78

NC(=O)c1ccc([N+](=O)[O-])cc1
logP: 0.82

O=c1ccn(C2C=CC(CO)O2)c(=O)[nH]1 (stereo unspecified)
logP: -1.07

CC(=O)c1ccc(N)cc1
logP: 0.83

Nc1ncnc2[nH]cnc12
logP: -0.09

O=C(O)Cc1ccc([N+](=O)[O-])cc1
logP: 1.39

Clc1ccccc1-c1ccccc1
logP: 4.53

N#Cc1cccs1
logP: 1.27

O=c1ccn([C@H]2C[C@H](F)[C@@H](CO)O2)c(=O)[nH]1
logP: -0.49

NCCc1c[nH]cn1
logP: -0.7

COC(=O)C(C#N)=NNc1ccc(Cl)cc1C
logP: 4.3

Cc1ccccc1OCC(=O)O
logP: 1.98

CCCCc1ccc(C(=O)O)nc1
logP: -1.29

COC(=O)C(C#N)=NNc1ccc(Cl)c(C(F)F)c1
logP: 3.8

CN(C)C(=O)c1ccccc1
logP: 0.62

O=C(O)Cc1cccc(I)c1
logP: 2.62

N#CCc1ccccc1
logP: 1.56

O=C(O)COc1cccc(C(F)(F)F)c1
logP: 2.36

Clc1ccccn1
logP: 1.22

CN1CCN(C2=Nc3cc(Cl)ccc3Nc3ccccc32)CC1
logP: 3.23

CCOC(=O)C(C#N)=NNc1cc(Cl)c(Cl)cc1Cl
logP: 5.21

O=C(CCCN1CCC(O)(c2ccc(Cl)cc2)CC1)c1ccc(F)cc1
logP: 3.36

CC(=O)c1ccc(S(=O)(=O)NC(=O)NC2CCCCC2)cc1
logP: 2.44

N[C@@H](Cc1ccccc1)C(=O)O
logP: -1.38
